“And” between values parts separate entries of the source, which are not always exact repeats. Identical values can stand only once. Toxic doses and inconclusive results are not listed. How the source made its calls: active means survival T/C of 150% or more; inactive means T/C below 125% in these data.
Tested on: P388 leukemia ip, CD2F1 mice, survival T/C
Assay: NCI In Vivo Anticancer Drug Screen. Data for tumor model P388 Leukemia (intraperitoneal) in CD2F1 (CDF1) mice
Settings: endpoint: median survival time, higher = longer survival
Procedure, shortened: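 Mice carrying the transplanted tumor received test compound or vehicle. Survival was recorded in each group, and the value is the treated-group measurement divided by that of the vehicle-treated control group.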

Measured: T/C

Cc1cc(NC(=S)SCc2ccc(Cl)cc2)ccc1Br
inactive: dose: 12.5 mg/kg/injection, schedule: Q01DX009 (ip), vehicle: saline with Tween-80 124 % of control | dose: 25.0 mg/kg/injection, schedule: Q01DX009 (ip), vehicle: saline with Tween-80 119 % of control | dose: 50.0 mg/kg/injection, schedule: Q01DX009 (ip), vehicle: Klucel (hydroxypropylcellulose) (HPC) 114 % of control and 124 % of control | dose: 50.0 mg/kg/injection, schedule: Q01DX009 (ip), vehicle: saline with Tween-80 124 % of control | dose: 50.0 mg/kg/injection, schedule: Q01DX009 (ip), vehicle: suspension in saline 108 % of control | dose: 100.0 mg/kg/injection, schedule: Q01DX009 (ip), vehicle: Klucel (hydroxypropylcellulose) (HPC) 118 % of control and 120 % of control | dose: 100.0 mg/kg/injection, schedule: Q01DX009 (ip), vehicle: suspension in saline 101 % of control | dose: 200.0 mg/kg/injection, schedule: Q01DX009 (ip), vehicle: Klucel (hydroxypropylcellulose) (HPC) 123 % of control | dose: 200.0 mg/kg/injection, schedule: Q01DX009 (ip), vehicle: suspension in saline 113 % of control

COc1c(OC)c2oc(=O)c3cc4c(c5oc(=O)c(c1OC)c2c53)OCO4
inactive: dose: 1.75 mg/kg/injection, schedule: Q01DX005 (ip), vehicle: other 88 % of control | dose: 3.5 mg/kg/injection, schedule: Q01DX005 (ip), vehicle: other 86 % of control | dose: 7.0 mg/kg/injection, schedule: Q01DX005 (ip), vehicle: other 86 % of control

FC(F)(F)C1(C(F)(F)F)SC(C(F)(F)F)(C(F)(F)F)S1
inactive: dose: 50.0 mg/kg/injection, schedule: Q01DX005 (ip), vehicle: saline 104 % of control | dose: 100.0 mg/kg/injection, schedule: Q01DX005 (ip), vehicle: saline 107 % of control | dose: 200.0 mg/kg/injection, schedule: Q01DX005 (ip), vehicle: saline 104 % of control

O=C(N/N=C\c1cc(Br)cc(Br)c1O)N/N=C/c1cc(Br)cc(Br)c1O
active: dose: 160.0 mg/kg/injection, schedule: Q01DX005 (ip), vehicle: suspension in saline 158 % of control | dose: 280.0 mg/kg/injection, schedule: Q01DX005 (ip), vehicle: suspension in saline 160 % of control
inactive: dose: 6.25 mg/kg/injection, schedule: Q01DX009 (ip), vehicle: saline with Tween-80 100 % of control and 110 % of control | dose: 12.5 mg/kg/injection, schedule: Q01DX009 (ip), vehicle: distilled water + Tween-80 98 % of control | dose: 20.0 mg/kg/injection, schedule: Q01DX005 (ip), vehicle: suspension in saline 106 % of control | dose: 20.0 mg/kg/injection, schedule: Q01DX005 (iv), vehicle: suspension in saline 101 % of control | dose: 25.0 mg/kg/injection, schedule: Q01DX009 (ip), vehicle: distilled water + Tween-80 106 % of control | dose: 40.0 mg/kg/injection, schedule: Q01DX005 (iv), vehicle: suspension in saline 101 % of control | dose: 50.0 mg/kg/injection, schedule: Q01DX009 (ip), vehicle: distilled water + Tween-80 120 % of control | dose: 50.0 mg/kg/injection, schedule: Q01DX009 (oral), vehicle: saline with Tween-80 103 % of control | dose: 80.0 mg/kg/injection, schedule: Q01DX005 (iv), vehicle: suspension in saline 100 % of control | dose: 100.0 mg/kg/injection, schedule: Q01DX009 (oral), vehicle: saline with Tween-80 105 % of control | dose: 160.0 mg/kg/injection, schedule: Q01DX005 (iv), vehicle: suspension in saline 100 % of control | dose: 200.0 mg/kg/injection, schedule: Q01DX009 (oral), vehicle: saline with Tween-80 108 % of control | dose: 400.0 mg/kg/injection, schedule: Q01DX009 (oral), vehicle: saline with Tween-80 104 % of control | dose: 800.0 mg/kg/injection, schedule: Q01DX009 (oral), vehicle: saline with Tween-80 104 % of control | dose: 1600.0 mg/kg/injection, schedule: Q01DX009 (oral), vehicle: saline with Tween-80 106 % of control

Clc1ccccc1-c1nnc(-c2cccc(-c3nnc(-c4ccccc4Cl)s3)c2)s1
inactive: dose: 50.0 mg/kg/injection, schedule: Q01DX005 (ip), vehicle: saline with Tween-80 91 % of control | dose: 100.0 mg/kg/injection, schedule: Q01DX005 (ip), vehicle: saline with Tween-80 89 % of control | dose: 200.0 mg/kg/injection, schedule: Q01DX005 (ip), vehicle: saline with Tween-80 90 % of control

CCCCCCCCCCCCCCCC(=O)N(CCC#N)CCC#N
inactive: dose: 200.0 mg/kg/injection, schedule: Q01DX009 (ip), vehicle: saline with Tween-80 100 % of control
active: dose: 100.0 mg/kg/injection, schedule: Q01DX009 (ip), vehicle: saline with Tween-80 185 % of control
